Experimental data published in ChEMBL document CHEMBL2016506, “Glucose-aspirin: Synthesis and in vitro anti-cancer activity studies” (Bioorg Med Chem Lett, 2012).
The source made the active and inactive calls. The calls are words filed in the database; no cut-off is given here.

Key:
[1] = test system: SK-BR-3; assay: Cytotoxicity against human SKBR3 cells after 24 hrs by alamar blue assay; format: functional, cell-based; details: SK-BR-3, 24 h
[2] = test system: WI-38; assay: Cytotoxicity against human WI38 cells after 24 hrs by alamar blue assay; format: cell-based; details: WI-38, 24 h
[3] = test system: PANC-1; assay: Cytotoxicity against human PANC1 cells after 24 hrs by alamar blue assay; format: functional, cell-based; details: PANC-1, 24 h
[4] = test system: PC-3; assay: Cytotoxicity against human PC3 cells after 24 hrs by alamar blue assay; format: functional, cell-based; details: PC-3, 24 h
[5] = test system: SK-BR-3; assay: Cytotoxicity against human SKBR3 cells after 48 hrs by alamar blue assay; format: functional, cell-based; details: SK-BR-3, 48 h
[6] = test system: WI-38; assay: Cytotoxicity against human WI38 cells after 48 hrs by alamar blue assay; format: cell-based; details: WI-38, 48 h
[7] = test system: PANC-1; assay: Cytotoxicity against human PANC1 cells after 48 hrs by alamar blue assay; format: functional, cell-based; details: PANC-1, 48 h
[8] = test system: PC-3; assay: Cytotoxicity against human PC3 cells after 48 hrs by alamar blue assay; format: functional, cell-based; details: PC-3, 48 h
[9] = test system: SK-BR-3; assay: Ratio of IC50 for aspirin to compound IC50 for human SKBR3 cells; format: functional
[10] = test system: PANC-1; assay: Ratio of IC50 for aspirin to compound IC50 for human PANC1 cells; format: functional
[11] = test system: PC-3; assay: Ratio of IC50 for aspirin to compound IC50 for human PC3 cells; format: functional
[12] = test system: SK-BR-3; assay: Growth inhibition of human SKBR3 cells at 2 x 10 '-3 M to 1.5 x 10^-4 M after 24 hrs by alamar blue assay; format: functional
[13] = test system: PANC-1; assay: Growth inhibition of human PANC1 cells at 2 x 10 '-3 M to 1.5 x 10^-4 M after 24 hrs by alamar blue assay; format: functional
[14] = test system: PC-3; assay: Growth inhibition of human PC3 cells at 2 x 10 '-3 M to 1.5 x 10^-4 M after 24 hrs by alamar blue assay; format: functional
[15] = test system: WI-38; assay: Cytotoxicity against human WI38 cells at 300 uM after 24 hrs by alamar blue assay; format: cell-based; details: wi-38, 24 h
[16] = test system: SK-BR-3; assay: Growth inhibition of human SKBR3 cells at 300 uM after 48 hrs by alamar blue assay; format: functional
[17] = test system: SK-BR-3; assay: Growth inhibition of human SKBR3 cells at 150 uM after 48 hrs by alamar blue assay; format: functional; details: SK-BR-3, 48 h, read-out: GI
[18] = test system: PANC-1; assay: Growth inhibition of human PANC1 cells at 300 uM after 48 hrs by alamar blue assay; format: functional
[19] = test system: PANC-1; assay: Growth inhibition of human PANC1 cells at 150 uM after 48 hrs by alamar blue assay; format: functional; details: PANC-1, 48 h, read-out: GI
[20] = test system: PC-3; assay: Growth inhibition of human PC3 cells at 300 uM after 48 hrs by alamar blue assay; format: functional
[21] = test system: PC-3; assay: Growth inhibition of human PC3 cells at 150 uM after 48 hrs by alamar blue assay; format: functional; details: PC-3, 48 h, read-out: GI
[22] = test system: WI-38; assay: Growth stimulation of human WI38 cells at 2 x 10^-3 to 3 x 10^-4 M after 24 to 48 hrs by alamar blue assay; format: functional, cell-based
[23] = test system: PC-3; assay: Growth stimulation of human PC3 cells at 2 x 10^-3 M after 24 to 48 hrs by alamar blue assay; format: functional, cell-based
[24] = Drug metabolism in human serum assessed as compound hydrolysis after 3 hrs by HPLC analysis; format: ADME, cell-free; details: read-out: Drug metabolism
[25] = Aqueous solubility of the compound in 300 ml water; format: physicochemical; details: buffer
[26] = test system: SK-BR-3; assay: Growth inhibition of human SKBR3 cells at 300 uM after 24 hrs by alamar blue assay; format: functional; details: SK-BR-3, 24 h, read-out: GI
[27] = test system: PANC-1; assay: Growth inhibition of human PANC1 cells at 300 uM after 24 hrs by alamar blue assay; format: functional; details: PANC-1, 24 h, read-out: GI
[28] = test system: PC-3; assay: Growth inhibition of human PC3 cells at 300 uM after 24 hrs by alamar blue assay; format: functional; details: PC-3, 24 h, read-out: GI
[29] = test system: WI-38; assay: Cytotoxicity against human WI38 cells at 2 x 10^-3 to 3 x 10^-4 M after 24 hrs by alamar blue assay; format: cell-based; details: wi-38, 24 h
[30] = test system: WI-38; assay: Cytotoxicity against human WI38 cells at 2 x 10^-3 to 3 x 10^-4 M after 48 hrs by alamar blue assay; format: cell-based; details: wi-38, 48 h
[31] = Aqueous solubility of the compound in 43 ml water; format: physicochemical; details: buffer
[32] = test system: PANC-1; assay: Growth inhibition of human PANC1 cells at 2 x 10^-3 to 1.5 x 10^-4 M after 48 hrs by alamar blue assay; format: functional, cell-based
[33] = test system: SK-BR-3; assay: Growth inhibition of human SKBR3 cells at 2 x 10^-3 to 1.5 x 10^-4 M after 48 hrs by alamar blue assay; format: functional, cell-based
[34] = test system: PC-3; assay: Growth inhibition of human PC3 cells at 2 x 10^-3 to 1.5 x 10^-4 M after 48 hrs by alamar blue assay; format: functional, cell-based

CC(=O)Oc1ccccc1C(=O)O[C@@H]1[C@@H](O)[C@@H](O)O[C@H](CO)[C@H]1O
IC50 [1]: 201 µM | IC50 [2]: 376 µM | IC50 [3]: 399 µM | IC50 [4]: 83.2 µM | IC50 [5]: 87.8 µM | IC50 [6]: 310 µM | IC50 [7]: 90.5 µM | IC50 [8]: 81.4 µM | Ratio IC50 [9]: 8 | Ratio IC50 [10]: 8 | Ratio IC50 [11]: 8 | growth inhibition (GI) [12]: 20% | growth inhibition (GI) [13]: 20% | growth inhibition (GI) [14]: 20% | Activity [15]: Non-toxic | inhibition of growth at 300 µM ([16]; SK-BR-3, 48 h, read-out: GI): 90% | inhibition of growth at 150 µM [17]: 60% | inhibition of growth at 300 µM ([18]; PANC-1, 48 h, read-out: GI): 70% | inhibition of growth at 150 µM [19]: 60% | inhibition of growth at 300 µM ([20]; PC-3, 48 h, read-out: GI): 85% | inhibition of growth at 150 µM [21]: 65% | Activity [22]: Active | Activity [23]: Active | metabolised at 3 h [24]: 27% | solubility [25]: soluble | inhibition of growth at 300 µM [26]: 60% | inhibition of growth at 300 µM [27]: 60% | inhibition of growth at 300 µM [28]: 60%

CC(=O)Oc1ccccc1C(=O)O [ASPIRIN]
IC50 [4]: 771 µM | IC50 [8]: 782 µM | growth inhibition (GI) [12]: inactive | growth inhibition (GI) [13]: inactive | growth inhibition (GI) [14]: inactive | growth inhibition (GI) [16]: Active | growth inhibition (GI) [18]: Active | growth inhibition (GI) [20]: Active | Activity [29]: Toxic | Activity [30]: Toxic | metabolised at 3 h [24]: 47% | solubility [31]: soluble | growth inhibition (GI) [32]: inactive | growth inhibition (GI) [33]: inactive | growth inhibition (GI) [34]: inactive
